This is an account of results in patent publication US7033829B2, “Method to inhibit cell growth using oligonucleotides” (Trustees of Boston University, priority 2000, dated 2006).

Oligonucleotides are written 5' to 3', each unit as a sugar letter and its base; * is a phosphorothioate linkage, no mark a phosphodiester; rarer units and linkages stand in square brackets, end groups in braces. Plain capitals give the bases only. d = 2'-deoxy (DNA); {P} = phosphate

The subject of series [1] is Cu/Zn superoxide dismutase. The experiment in a line: Cu/Zn superoxide dismutase mRNA in fibroblasts. Conditions: 48 and 72 hours after treatment. It is filed as cell-based.
Another series has as its target p53 (Homo sapiens, UniProt P04637). As to the kind of experiment: p53 assay using hGH reporter plasmid in p53-transfected H1299 cells. Further details: expressed in transfected cells; host or cells: H1299 lung carcinoma cells (p53-null); vector from Dr. Bert Vogelstein. It is filed as cell-based. Conditions: 100 μM; 24 hours. The procedure:
H1299 cells were similarly transfected with p53 expression vector or control vector. Two days after the transfection these cells were cotransfected with pPG-GH and PSV-β-galactosidase control vector, and treated with 100 μM pTpT. Twenty-four hours later, 250 μl of the medium and the cell lysate were harvested and processed as described above.

The subject of series [2] is UV-damaged CAT reporter plasmid in human fibroblasts. The experiment in a line: Repair of UV-damaged CAT reporter plasmid in fibroblasts. It is filed as cell-based. Conditions: 100 μM for five days before transfection; plasmid 100 mJ/cm^2 UVB. From the text:
Expression of a UV-damaged reporter plasmid containing the bacterial chloramphenicol acetyltransferase (CAT) gene under the control of SV40 promoter and enhancer sequences was previously shown to detect decreased DNA repair capacity in human lymphocytes associated with aging and early-onset skin cancers. This reporter plasmid was used to measure the DNA repair capacity of normal neonatal human skin-derived fibroblasts and keratinocytes.
Keratinocytes from newborns were established as described (Stanulis-Praeger, B. M. and Gilchrest, B. A., J. Cell. Physiol. 139:116–124 (1989)) using a modification of the method of Rheinwald and Green (Gilchrest, B. A. et al., J. Invest. Dermatol. 101:666–672 (1993)). First-passage keratinocytes were maintained in a non-differentiating low Ca^2+ medium (K-Stim, Collaborative Biomedical Products, Bedford, Mass.). […] CAT enzyme activity was determined using the liquid scintillation counting protocol and components of the assay system kit. […] Protein concentration in the cell extracts was determined by the method of Bradford (Anal. Biochem. 72:248 […]). CAT activity was expressed as c.p.m./100 μg protein and is represented as percent activity of cells transfected with sham-irradiated, non-damaged, plasmid.

In a further series the test system is contact hypersensitivity. As to the kind of experiment: Contact hypersensitivity to DNFB (ear swelling). It is filed as in vivo, C57B16 mice. Conditions: 30 μl of 100 μM BID×5d topical to abdominal skin before sensitization. Here is the method:
C57B16 mice were subjected to the following treatment prior to sensitization with the allergen DNFB, by topical administration to abdominal skin; no pretreatment, UVB irradiation (200 J/m^2/dx4d), pTpT, pApA, or vehicle alone (30 μl of 100 μM BID×5d).

The test system of series [3] is pCMV-Luc plasmid in human newborn fibroblasts. The experiment in a line: Repair of singlet oxygen-damaged pCMV-Luc plasmid in fibroblasts. It is filed as cell-based. Conditions: 100 μM 48 hours. Here is the method:
The plasmid pCMV-Luc is a non-replicating vector containing a reporter gene, luciferase, under the control of a strong constitutive cytomegalovirus promoter (gift of Dr. Hedayati, Johns Hopkins University). Singlet oxygen-induced DNA damage of the plasmid was generated by irradiating the plasmid with visible light for different time intervals (0 min, 10 min and 20 min), in the presence of the photosensitizer methylene blue. Fibroblasts (human newborn), pretreated for 48 hours with 100 μM pTpT or with diluent alone, were transfected with 0.5 μg of pCMV-Luc using Lipofect Aminem (Promega, Madison, Wis.). After two days, plasmid-encoded luciferase activity was determined in cell extracts (Promega luciferase assay). Pretreatment with pTpT enhanced the repair of singlet oxygen-induced DNA damage after […] by 179% and 228% respectively. FIG. 26 represents luciferase activity as a percent of luciferase activity assayed in fibroblasts transfected with sham irradiated plasmid.

Series [4] concerns basal keratinocytes (epidermal cell proliferation). The experiment in a line: Epidermal labeling index after topical application. Conditions: 100 μM topical, three days, mean ± SD. It is filed as in vivo, Guinea pigs. Here is the method:
Guinea pigs received one or two daily topical applications of 100 μM pTpT, or vehicle alone as control, for three days. On the fourth day, punch biopsies were obtained and maintained for 7 or 8 hours in primary keratinocyte medium supplemented with 10 μCi/ml ^3H-thymidine (specific activity 9.0 Ci/m mole, NEN). Proliferating cells are expected to incorporate the ^3H-thymidine into newly synthesized DNA. Tissues were then rinsed with cold medium and fixed in 10% phosphate buffered formalin. After a series of dehydration steps, tissues were embedded in paraffin. 6 μm sections were cut and mounted onto glass slides, dipped in NTB-2 Nuclear Track emulsion and kept in the dark at 4° C. for 7 days. Sections were developed in Kodak D-19 developer and stained with hematoxylin and eosin. Labeling index, a measure of DNA replication and therefore cell proliferation, was measured by calculating the percentage of labeled nuclei among 100 basal keratinocytes.

In series [5] the test system is mitochondrial enzymes ATPase, cytochrome c oxidase and NADH dehydrogenase genes. As to the kind of experiment: DNA microarray / RT-PCR / northern of mitochondrial genes in SCC12F. It is filed as cell-based, human. From the text:
Exposure of keratinocytes to UVB irradiation affects the expression of genes involved in cell cycle arrest, DNA repair and cytokine production. Single-stranded oligonucleotides sharing sequence homology with the telomere 3′ overhang, when introduced into cells, mimic these UV effects. To identify other genes that may be similarly modulated, cells of keratinocyte origin (SCC12F; a human epidermal squamous cell carcinoma line provided by Dr. James Rheinwald of Harvard University) were exposed to solar simulated irradiation (SSR) (20 mJ/cm^2, measured at 285±5 nm), to an 11-base oligonucleotide (pGTTAGGGTTAG; SEQ ID NO:5) homologous to the telomere overhang (T-oligo), or to a complementary sequence as control [pCTAACCCTAAC; (SEQ ID NO:9) control oligonucleotide]. […] These are mitochondrial-transcribed genes whose encoded proteins participate in cellular respiration.

Sequence of p53 (P04637 whole entry): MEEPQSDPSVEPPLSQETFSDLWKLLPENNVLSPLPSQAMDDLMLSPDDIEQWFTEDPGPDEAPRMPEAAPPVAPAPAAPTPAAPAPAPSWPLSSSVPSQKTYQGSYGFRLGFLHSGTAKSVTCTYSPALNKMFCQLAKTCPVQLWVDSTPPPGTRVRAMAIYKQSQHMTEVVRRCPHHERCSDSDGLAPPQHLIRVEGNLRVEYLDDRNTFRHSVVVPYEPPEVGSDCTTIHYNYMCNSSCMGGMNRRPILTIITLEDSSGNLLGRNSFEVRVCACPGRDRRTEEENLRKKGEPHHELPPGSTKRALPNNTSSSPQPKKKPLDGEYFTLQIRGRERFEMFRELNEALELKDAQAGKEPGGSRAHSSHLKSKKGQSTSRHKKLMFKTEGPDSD

thymidine dinucleotide [pTpT]: the “increase of Cu/Zn superoxide dismutase mRNA levels” value in series [1] is listed as “greater than 3 fold”. Besides, the “increase in hGH secretion compared to diluent-treated cells” value at p53 was found to be 40%. Moreover, in series [2], the “CAT activity relative to sham-irradiated transfected controls” value is recorded as “more than 50%”. The “ear swelling responses to DNFB challenge” value in the series on contact hypersensitivity worked out at 0.9±0.3. The “enhanced repair of singlet oxygen-induced DNA damage” value in series [3] (10 mJ/cm^2) is 179%; in series [3] (20 mJ/cm^2), 228%. The “Labeling Index (percentage of labeled nuclei among 100 basal keratinocytes)” value was found to be 2 ± 0 in series [4] (1 daily application) and 1.5 ± 0.7 in series [4] (2 daily applications).
In the case of “pGTTAGGGTTAG (DNA {P}-dGdTdTdAdGdGdGdTdTdAdG) [SEQ ID NO: 5]”, the “downregulation of 8 genes (microarray)” value in series [5] is recorded as above 50%. Moreover, the “genes downregulated as early as” value in series [5] (RT-PCR and northern blot) was 48 h.
